In the pKa sets of Baltruschat and Czodrowski (2020):
Values joined by “and” are separate entries in the source; they are usually repeats but may differ in a detail not shown here. Identical values can stand only once.

conditions: acidic group

Compound | pKa
O=C(O)c1ccc(/N=C/c2ccccc2)cc1 | 4.47
Nc1n[nH]c(N)c1/N=N/c1ccc(C(=O)O)cc1 | 4.68
CC(=O)Nc1ccc(O)c([N+](=O)[O-])c1 | 6.78
O=C(O)c1cc(-c2ccccc2)n[nH+]c1NCC[NH+]1CCOCC1 | 1.1
[NH3+]Cc1nnn[nH]1 | 2.62
O=C(O)CC(O)c1ccccc1 (configuration not stated) | 4.4
C=C(C)/C=C(\C)O | 10.4
CC(=O)c1cc(C(=O)C(C)(C)C)[nH]n1 | 9.7
C[Si](C)(CC(=O)O)c1ccccc1 | 5.27
C[n+]1c2ccccc2cc2ccc(N)cc21 | 11.8
Oc1ccc(O)c(Cl)c1 | 8.81
Oc1[nH]c2ccccc2[nH+]1 | -1.7
CC(=O)c1ccc(O)cc1 | 7.9
O=C1Cc2c1ccc(O)c2Br | 5.75
[NH3+]CCCCCC#CC#CCCC(=O)O | 4.17
[NH3+]c1ccccc1O[C@H]1O[C@@H](C(=O)O)[C@H](O)[C@@H](O)[C@@H]1O | 3.3
O=C1Cc2c1cc([N+](=O)[O-])c(O)c2Br | 2.88
C=CC(CC(C)(C)CC(C)(C)C)c1ccc2cccnc2c1O (configuration not stated) | 10
CC(=O)OCC(=N/[O-])/C(C)=N/O | 11.5
CC(O)[C@@H]1C[NH2+][C@H](C(=O)O)[C@H]1CC(=O)O (some centres not stated) | 2.94
Cc1ccc(Cl)c(C(=O)O)c1 | 3.12
O=[N+]([O-])c1ccc(O)c(C[NH+]2CCOCC2)c1 | 5.61
O=C(O)c1cc(Cl)cc([N+](=O)[O-])c1 | 2.17
Brc1ccc2c(c1)-c1ccccc1C2[P+](c1ccccc1)(c1ccccc1)c1ccccc1 (configuration not stated) | 7.53
Cc1ccc(S(=O)(=O)N(CCNCC(=O)[O-])CC(=O)[O-])cc1 | 7.83
CC(C)(C)C(=O)CC(=O)C(C)(C)C | 11.8
Oc1ccc2c(c1)ncc1ccccc12 | 8.79

Compound | pKa
N#C[C@H]1CCCC[C@@H]1C(=O)O | 3.86
Oc1ccccc1F | 8.81
C[N+]1(CCCC(=O)O)CCCCC1 | 4.11
Sc1cccnc1 | 7.01
C[n+]1ccc2c(O)cccc2c1 | 6.9
NC(=O)CN(CCN(CC(N)=O)Cc1ccccc1O)Cc1ccccc1O | 10.2
C[N+](C)(C)c1ccc(O)c([N+](=O)[O-])c1 | 5.03
O=C1CCc2cc(Cl)ccc2C1 | 12.5
O=C(O)c1ccc2cc3ccccc3cc2c1 | 4.18
CC(C)SC(C)C(=O)O (configuration not stated) | 3.78
Cc1coc(C)c1C(=O)O | 4.55
C=CC(Cl)C(=O)O (configuration not stated) | 2.54
Oc1cccc(Br)c1 | 8.99
O=c1[nH]c(=S)c2[nH]cnc2[nH]1 | 6.2
O=C(O)c1cc([N+](=O)[O-])ccc1O | 2.15
COc1ccc(O)c([N+](=O)[O-])c1 | 7.39
NNC(=O)C1(F)C(F)(F)C(F)(F)C(F)(F)C(F)(F)C1(F)F | 9.14
Oc1ccc2c(cnc3ccccc32)c1 | 8.68
Nc1ccc(S(=O)(=O)Nc2ccc(O)cn2)cc1 | 7.5
Nc1nc2nc[nH]c2c(N)[n+]1[O-] | 9.7
C[N+](C)(C)[CH2][Sn]([CH3])([CH3])[CH3] | 10.6
COc1cccc(-c2nnn[nH]2)c1 | 3.91
Oc1ccc2cnncc2c1 | 7.95
C[N+](C)(C)c1cccc(O)c1 | 8.07
O=C(O)c1cc2ccccc2s1 | 3.1
Nc1ccc(O)c2ncccc12 | 11.2
Nc1ccc(S(=O)(=O)Nc2ncc[nH]2)cc1 | 9.72

Compound | pKa
S=C(Nc1ccccc1)c1cccc(Br)c1 | 10.5
CNC[C@H](O)c1cccc(O)c1 | 9.84
O=C(O)c1cccc([N+](=O)[O-])c1O | 2.16
O=[N+]([O-])/C=C/c1ccc(O)cc1 | 7.98
O=C(O)c1ccccc1F | 3.6
C[NH+]1C[C@@H](C(=O)O)C=C2c3cccc4[nH]cc(c34)C[C@@H]21 | 3.28
CNc1cc[nH+]c(S)n1 | 3.09
Cc1ccc(NS(=O)(=O)c2ccccc2)cc1 | 8.63
CCCOc1ccc(C(=O)O)cc1 | 4.63
NC1=[NH+][C@H](C(=O)O)[C@@H]([C@H](O)C[NH3+])N1 | 2.4
Nc1c[nH+]c(S)nc1N | 2.96
Nc1cccc2c(O)cccc12 | 10.3
CCCCCCCCCCc1c(-c2ccccc2)n[nH]c1O | 11
Oc1cc(-c2ccccc2)no1 | 4.01
Cc1ccc2cccc(O)c2n1 | 10.1
O=S(=O)(Nc1nccs1)c1ccc(O)cc1 | 6
O=C(O)c1csc(Br)n1 | 3.28
CC(=O)c1ccc([N+](=O)[O-])cc1 | 16.6
S=C(Nc1ccc(Br)cc1)c1ccccc1 | 10.4
O=S(=O)([O-])c1ccc2c(/N=N/c3ccc4[nH]cnc4c3)c(O)c(S(=O)(=O)[O-])cc2c1 | 9.8
Cc1nc2c(n1C)C(=O)c1[nH]c(=O)[nH]c(=O)c1C2=O | 5.82
N#CC(C#N)Cc1ccc(Cl)cc1 | 11.5
C/C(C#[N+][O-])=N\O | 8.8
N#Cc1ccc(-c2nnn[nH]2)cc1 | 3.53
C/C(=N\O)C(=O)[O-] | 11.4
CC(c1cccc(Cl)c1)[N+](=O)[O-] (configuration not stated) | 7.05

same assay, conditions: basic group

Compound | pKa
COCCN(CCOC)c1ccccc1 | 4.11
CN(C)N(C)C | 6.19
OCc1cc(-c2ccccc2)nnc1NCCN1CCOCC1 | 6.99
O=C(O)c1ccc(/N=C/c2ccccc2)cc1 | 1.97
Nc1n[nH]c(N)c1/N=N/c1ccc(C(=O)O)cc1 | 3.4
CN(C)Cc1cc(C(=O)c2ccccc2)ccc1[O-] | 10.2
CC(C)C(N)C(C)C | 10.4
CCCCCCCCCCCCN(CCO)CC(C)O (configuration not stated) | 6.5
C[NH+](C)CCN | 6.63
C#CC(C)(C)N(C)C(C)(C)C | 9.3
CNCCCN | 10.7
O=C([O-])c1cc(-c2ccccc2)nnc1NCCN1CCOCC1 | 7.07
NCCCCC#CC#CCCC(=O)[O-] | 10.5
CCC(C)(C)NC1CCCCC1 | 11.2
CCc1c(C)nnc(C)c1C | 5.17
CC(N)=S | -2.51
Cc1cc(Br)c(N)c(Br)c1 | 0.69
CCOc1ccccc1N | 4.51
CC[n+]1ccc([O-])nc1[S-] | 8.7
C=CC(CC(C)(C)CC(C)(C)C)c1ccc2cccnc2c1O (configuration not stated) | 4.51
CCNN(C)C | 6.58
OC[C@H]1CCCN2CCCC[C@@H]12 | 10.2
CN(C)Cc1cccc(NC(=O)/C=N/[O-])c1 | 9.12
c1ccc2c(c1)C1CCN2CC1 | 7.79
Cc1cc2nccc(NCCC[NH+](C)C)c2cc1[N+](=O)[O-] | 7.38

Compound | pKa
Oc1ccc2c(c1)ncc1ccccc12 | 4.82
CCCC[NH2+]CCN | 7.53
COc1ccc(/C=N/c2ncc3nc[nH]c3n2)cc1 | 3.86
Sc1cccnc1 | 2.28
NC(=O)CN(CCN(CC(N)=O)Cc1ccccc1O)Cc1ccccc1O | 6.54
Nc1ccc2ccncc2c1 | 6.2
O=C(NCCCN1CCOCC1)c1ccc(Cl)cc1 | 6.81
CC(CC(C#N)(c1ccccc1)c1ccccc1)N1CCCCC1 (configuration not stated) | 7.73
C1CCC(N2CCCC2)CC1 | 10.7
C#CCNN | 5.46
COc1ccc(-c2cn3cccnc3n2)c(OC)c1 | 4.34
Nc1ccnnc1 | 6.69
Cc1cc(-c2ncc[nH]2)n[nH]1 | 6.16
c1c[nH]c(P(c2[nH]cc[nH+]2)c2[nH]cc[nH+]2)n1 | 5.26
CCNc1nc(N)nc(N)n1 | 5.23
Cc1ccc(S(=O)(=O)[N-]CCC(=N)N(C)C)cc1 | 11.4
CC(C)Nc1ncnc2c1cnn2C | 4.22
COc1ccnnc1 | 3.7
C1=C(c2nc3ccccc3o2)C2CCN1CC2 | 7.23
[S-]c1nccc2ccccc12 | 10.8
O=c1[nH]c(=S)c2[nH]cnc2[nH]1 | 0.9
CC[NH+](CC)CCCCC(C)Nc1c2ccc(Cl)cc2nc2ccc(OC)cc12 (configuration not stated) | 7.74
C(CNCCc1nnn[n-]1)NCCc1nnn[n-]1 | 9.33
O=CN1CCNCC1 | 7.98
Nc1cccc2nc3ccccc3c(N)c12 | 11

Compound | pKa
CCC(O)CN(CC)CCO (configuration not stated) | 9.1
CCN1CCC=C1C | 11.9
Oc1ccc2c(cnc3ccccc32)c1 | 4.39
CN1CCCC(C(=O)[O-])C1 (configuration not stated) | 9.7
NC[C@@H](O)[C@H]1NC(N)=[NH+][C@@H]1C(=O)[O-] | 9.3
Nc1nc2nc[nH]c2c(N)[n+]1[O-] | 3.7
C=C(C)C(=O)NC(C)CN(C)C (configuration not stated) | 8.51
Cn1ncc2c(NCCO)ncnc21 | 3.86
NC(=O)/C=C(\O)c1ccncc1 | 7.36
CCCCNCC(=O)[O-] | 10.2
Oc1ccc2cnncc2c1 | 3.94
CN(C)CC(C)(C)C | 9.75
COc1ccc(OC)c2c1nc(CO)n2C | 5.24
c1ccc2nc3ccc4ccccc4c3cc2c1 | 4.39
CCOP(=O)(CN1CCOCC1)OCC | 4
Nc1ccc(O)c2ncccc12 | 5.67
Cc1cnc(N(C)C)s1 | 6.08
NCCCBr | 8.93
CNC[C@H](O)c1cccc(O)c1 | 8.77
C=C[C@]1(O)C[C@@H](C)N[C@H]2CCCC[C@@H]21 | 9.51
c1cnc2c(c1)ccc1ccc[nH+]c12 | 2.04
CCN(CC)/N=C(\C)N | 10.6
COc1ccccc1C(=N)c1ccccc1 | 7.29
Cc1ccnc(C)c1 | 6.77
Nc1cccc2c(O)cccc12 | 4.15

Compound | pKa
O=[N+](O)C1=CC=CC1 | 3.25
C1CN=C2NCCC2C1 (configuration not stated) | 11.7
COCC/N=C(\c1ccccc1)C(C)(C)O | 5.75
Cc1cc(C)nc(NS(=O)(=O)c2ccc([NH3+])cc2)n1 | -0.89
Cc1ccc2cccc(O)c2n1 | 5.63
NCCC[n+]1cc(Br)c2ccccc2c1 | 9.53
N=C(N)N(c1ccccc1)c1ccccc1 | 10.4
[O-]c1[nH+]cncc1O | 1.99
Cc1n[nH]c(C)c1Cl | 2.23
C[NH+]1CCCC1c1cncc2[nH]c3ccccc3c12 (configuration not stated) | 5.17
c1cnc2c(c1)ccc1c3c(cnc12)CCC3 | 5.78
[O-]c1[nH+]ccc2c1cnc1ccccc12 | 4.1
CN(C)CCN(C)CCN(C)C | 9.55 and 9.4
N=C(SCc1ccccc1)c1ccccc1 | 4.43
Cc1cccc(C(C)c2c[nH]cn2)c1C (configuration not stated) | 7.04
CC1=CN(C)CC1C (configuration not stated) | 9.6
CCN(CC)CC(=O)NCc1ccccc1 | 8.07
Cc1ccc(C2CCC[NH+]2C)cn1 (configuration not stated) | 3.78
C#CC(C)(C)N(C)C(C)(C)C#C | 6.65
Cc1cc(N)nc2ccc3ccccc3c12 | 7.14
CCn1cncn1 | 2.39
[NH3+]CCCCc1ccncc1 | 5.81
